“And” between values parts separate entries of the source, which are not always exact repeats. Identical values can stand only once. Like-named read-outs stand apart in the source and are kept apart here.
Columns and labels:
[1] = target: T1, NMDA receptor channel (GluN1a variant/GluN2B), wild-type (Rattus norvegicus, UniProt P35439+Q00960); experiment: Outside-out patch recordings of NMDA receptor currents, wild-type channel expressed in Xenopus oocytes; assay type: cell-based
T1 construct: expressed in transfected cells; host or cells: Xenopus laevis oocytes (cRNA injection)
T1 sequence (Q00960 27-1482, other chains not shown): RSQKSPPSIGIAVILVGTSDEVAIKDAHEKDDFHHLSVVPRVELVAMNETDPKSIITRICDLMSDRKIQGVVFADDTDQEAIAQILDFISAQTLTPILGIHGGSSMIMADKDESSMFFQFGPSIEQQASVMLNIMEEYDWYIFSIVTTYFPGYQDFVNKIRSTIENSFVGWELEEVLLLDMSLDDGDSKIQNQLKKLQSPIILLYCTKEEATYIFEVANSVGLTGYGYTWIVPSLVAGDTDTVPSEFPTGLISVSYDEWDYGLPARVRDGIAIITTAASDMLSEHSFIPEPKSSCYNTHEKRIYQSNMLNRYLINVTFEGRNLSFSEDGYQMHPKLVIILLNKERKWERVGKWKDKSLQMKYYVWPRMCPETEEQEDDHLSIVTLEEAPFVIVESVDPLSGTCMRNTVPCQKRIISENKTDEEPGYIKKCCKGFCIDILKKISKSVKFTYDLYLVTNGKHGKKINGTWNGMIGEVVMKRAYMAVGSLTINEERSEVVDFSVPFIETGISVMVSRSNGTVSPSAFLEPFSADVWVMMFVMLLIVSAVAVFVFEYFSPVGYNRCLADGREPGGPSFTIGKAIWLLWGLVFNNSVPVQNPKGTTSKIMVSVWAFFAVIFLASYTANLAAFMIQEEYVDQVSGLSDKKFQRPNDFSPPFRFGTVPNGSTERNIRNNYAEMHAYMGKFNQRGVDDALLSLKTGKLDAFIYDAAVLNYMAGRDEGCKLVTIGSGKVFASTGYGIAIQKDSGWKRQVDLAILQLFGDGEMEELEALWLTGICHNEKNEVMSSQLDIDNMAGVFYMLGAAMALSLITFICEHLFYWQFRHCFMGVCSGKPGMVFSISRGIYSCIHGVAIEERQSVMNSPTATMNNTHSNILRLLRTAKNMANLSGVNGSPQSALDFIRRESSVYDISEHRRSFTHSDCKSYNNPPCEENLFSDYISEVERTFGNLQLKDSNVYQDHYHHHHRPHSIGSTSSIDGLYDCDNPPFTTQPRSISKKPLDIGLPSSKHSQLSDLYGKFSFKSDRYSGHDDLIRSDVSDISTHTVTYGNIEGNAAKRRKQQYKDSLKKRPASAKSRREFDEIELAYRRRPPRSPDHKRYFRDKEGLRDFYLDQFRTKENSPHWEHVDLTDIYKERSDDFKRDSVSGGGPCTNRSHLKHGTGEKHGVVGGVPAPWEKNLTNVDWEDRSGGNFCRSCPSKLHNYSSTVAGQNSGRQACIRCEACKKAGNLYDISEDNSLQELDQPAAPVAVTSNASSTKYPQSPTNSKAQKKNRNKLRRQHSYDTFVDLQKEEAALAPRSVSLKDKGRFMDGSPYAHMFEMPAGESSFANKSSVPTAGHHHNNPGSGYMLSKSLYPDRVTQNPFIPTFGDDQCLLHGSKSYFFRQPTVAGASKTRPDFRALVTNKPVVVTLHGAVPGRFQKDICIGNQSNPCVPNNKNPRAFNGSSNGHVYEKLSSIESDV
Experimental: (§1) The rat GluN1a variant and GluN2B cDNA clones were used in this study. Point mutations were made by site-directed mutagenesis using the QuickChange Site-Directed Mutagenesis kit (Stratagene, La Jolla, CA). Mutations were verified by DNA sequencing to ensure the lack of any inadvertent mutations. The capped cRNA transcripts were then synthesized using T7 and T3 mMESSAGE mMACHINE transcription kits (Ambion, Austin, TX), and were stored at −80 °C.
(§2) This study was carried out in accordance with the ethical information guidelines of the National Taiwan University College of Medicine. The protocols for the care and use of animals were approved by the National Taiwan University College of Medicine and College of Public Health Institutional Animal Care and Use Committee (IACUC). All efforts were made to minimize animal suffering. Adult female Xenopus laevis were anesthetized, and ovarian lobes containing stage V or VI oocytes were removed. Oocytes were dispersed after manual disruption of the egg sac, and were digested for 1 hr with collagenase type I (2 mg/ml) to remove the follicular layer. A mixture of GluN1a variant and GluN2B cRNAs with a ratio of 1:5 (i.e., 0.1–4 ng of GluN1a variant and 0.5–20 ng of GluN2B) (Kashiwagi et al. 2002) was injected into oocytes. Oocytes were maintained in the culture medium (96 mM NaCl, 2 mM KCl, 1.8 mM MgCl2, 1.8 mM CaCl2, 5 mM HEPES, and 50 ug/ml gentamycin, pH 7.6) at 18 °C for 2–3 days before electrophysiological recordings.
Oocytes were placed in a recording chamber containing Mg^2+-free bath solution (150 mM NaMeSO3, 5 mM NaCl, and 10 mM HEPES; pH 7.4). Outside-out patch recordings were obtained using fire-polished pipettes pulled from borosilicate capillaries (outer diameter, 1.55–1.60 mm; Hilgenberg, Malsfeld, Germany). Recording pipettes ([…]) were filled with the pipette solution containing 150 mM NaMeSO3, 5 mM NaCl, 5 mM EGTA, and 10 mM HEPES (pH 7.4). A seal was formed, and the outside-out patch configuration was obtained in Tyrode’s solution (150 mM NaCl, 4 mM KCl, 2 mM MgCl2, 2 mM CaCl2, and 10 mM HEPES; pH 7.4). The patch was then lifted from the bottom of the chamber and moved in front of a set of “theta glass” tubes (2.0 mm outer diameter pulled to an opening of ~300 μm in width; Warner Instrument, Hamden, CT) emitting external recording solutions. The standard external solution was Mg^2+-free Ca^2+-free Tyrode’s solution (pH 7.4), but 2 mM Ca^2+ or 0.1–100 μM Cd^2+ may be added to the external recording solution as specified in each different experimental condition. The glass-tube holder was connected to a stepper motor (SF-77B perfusion system, Warner Instrument) to achieve fast switch for rapid solution change. Drugs and salts were purchased from Sigma (St. Louis, MO). NMDA, glycine, and Cd^2+ were dissolved in water to make 100, 100, and 10 mM stock solutions, respectively. The stock solutions were then diluted into the external recording solution to make 1 to 100 μM Cd^2+, 1 to 300 μM NMDA, and 30 μM glycine. The NMDA currents were recorded at a membrane potential of −70 mV and at room temperature (~25 °C) with an […] amplifier, filtered at 1 kHz with a four-pole Bessel filter, digitized at 500 μs intervals, and stored using a Digidata-1322A analog/digital interface along with the pCLAMP software (all from MDS Analytical Technologies, Sunnyvale, CA). To plot the activation and the desensitization curves, a patch was moved from the NMDA- and glycine-free external solution to the external solution containing 0 to 100 μM NMDA and 30 μM glycine for 3 s (the desensitization prepulse), and then moved to another external solution containing 300 μM NMDA and 30 μM glycine for 3 s (the test pulse) before being moved back to the NMDA-free external solution again. The amplitude of the sustained currents in the desensitization prepulse in each different concentration of NMDA is normalized to the maximal current and plotted against the NMDA concentration to obtain the activation curve. […]

[2] = target: E661A mutant NMDA channel; experiment: Outside-out patch recordings, E661A mutant NMDA channel; assay type: cell-based, rat; details: Hill coefficient of 1 assumed
Experimental: as §1
(§3) This study was carried out in accordance with the ethical information guidelines of the National Taiwan University College of Medicine. The protocols for the care and use of animals were approved by the National Taiwan University College of Medicine and College of Public Health Institutional Animal Care and Use Committee (IACUC). All efforts were made to minimize animal suffering. […]
(§4) Oocytes were placed in a recording chamber containing Mg^2+-free bath solution (150 mM NaMeSO3, 5 mM NaCl, and 10 mM HEPES; pH 7.4). […] The NMDA currents were recorded at a membrane potential of −70 mV and at room temperature (~25 °C) with an […] amplifier, filtered at 1 kHz with a four-pole Bessel filter, digitized at 500 μs intervals, and stored using a Digidata-1322A analog/digital interface along with the pCLAMP software (all from MDS Analytical Technologies, Sunnyvale, CA). […]

[3] = target: E662A mutant NMDA channel; experiment: Outside-out patch recordings, E662A mutant NMDA channel; assay type: cell-based, rat; details: Hill coefficient of 1 assumed
Experimental: as §1, §3, §4

[4] = target: T2, E661AE662A double mutant NMDA channel (Rattus norvegicus, UniProt P35439+Q00960, E661A/E662A); experiment: Outside-out patch recordings, E661AE662A double mutant NMDA channel; assay type: cell-based; details: for coupling coefficient ((KdWT × KdE661AE662A)/(KdE661A × KdE662A)), double mutant cycle analysis: mutations E661A and E662A; for Kd: E661AE662A, Hill coefficient of 1 assumed
T2 construct: expressed in transfected cells; host or cells: Xenopus laevis oocytes (cRNA injection)
T2 sequence (Q00960 27-1482, other chains not shown): as above
Experimental: as §1, §2
Oocytes were placed in a recording chamber containing Mg^2+-free bath solution (150 mM NaMeSO3, 5 mM NaCl, and 10 mM HEPES; pH 7.4). Outside-out patch recordings were obtained using fire-polished pipettes pulled from borosilicate capillaries (outer diameter, 1.55–1.60 mm; Hilgenberg, Malsfeld, Germany). Recording pipettes ([…]) were filled with the pipette solution containing 150 mM NaMeSO3, 5 mM NaCl, 5 mM EGTA, and 10 mM HEPES (pH 7.4). A seal was formed, and the outside-out patch configuration was obtained in Tyrode’s solution (150 mM NaCl, 4 mM KCl, 2 mM MgCl2, 2 mM CaCl2, and 10 mM HEPES; pH 7.4). The patch was then lifted from the bottom of the chamber and moved in front of a set of “theta glass” tubes (2.0 mm outer diameter pulled to an opening of ~300 μm in width; Warner Instrument, Hamden, CT) emitting external recording solutions. The standard external solution was Mg^2+-free Ca^2+-free Tyrode’s solution (pH 7.4), but 2 mM Ca^2+ or 0.1–100 μM Cd^2+ may be added to the external recording solution as specified in each different experimental condition. The glass-tube holder was connected to a stepper motor (SF-77B perfusion system, Warner Instrument) to achieve fast switch for rapid solution change. Drugs and salts were purchased from Sigma (St. Louis, MO). NMDA, glycine, and Cd^2+ were dissolved in water to make 100, 100, and 10 mM stock solutions, respectively. The stock solutions were then diluted into the external recording solution to make 1 to 100 μM Cd^2+, 1 to 300 μM NMDA, and 30 μM glycine. The NMDA currents were recorded at a membrane potential of −70 mV and at room temperature (~25 °C) with an […] amplifier, filtered at 1 kHz with a four-pole Bessel filter, digitized at 500 μs intervals, and stored using a Digidata-1322A analog/digital interface along with the pCLAMP software (all from MDS Analytical Technologies, Sunnyvale, CA). […]

[5] = target: T3, D658A mutant NMDA channel (Rattus norvegicus, UniProt P35439+Q00960, D658A); experiment: Outside-out patch recordings, D658A mutant NMDA channel; assay type: cell-based; details: 30 μM Cd2+ between NMDA pulses; P = 0.034
T3 construct: expressed in transfected cells; host or cells: Xenopus laevis oocytes (cRNA injection)
Experimental: as §1, §3, §4

[6] = target: T4, D658AE661AE662A triple mutant NMDA channel (Rattus norvegicus, UniProt P35439+Q00960, D658A/E661A/E662A); experiment: Outside-out patch recordings, D658AE661AE662A triple mutant NMDA channel; assay type: cell-based
T4 construct: expressed in transfected cells; host or cells: Xenopus laevis oocytes (cRNA injection)
T4 sequence (Q00960 27-1482, other chains not shown): as above
Experimental: as §1, §3, §4

[7] = target: T5, T647A (GluN2B) mutant NMDA channel (Rattus norvegicus, UniProt P35439+Q00960, T647A); experiment: Outside-out patch recordings, T647A (GluN2B) mutant NMDA channel; assay type: cell-based; details: 30 μM Cd2+
T5 construct: expressed in transfected cells; host or cells: Xenopus laevis oocytes (cRNA injection)
Experimental: as §1, §2, §4

[8] = Fig. 5e inset, read-out: apparent dissociation constant, closed channel, derived from relative peak current in 30 μM Cd2+
[9] = Fig. 6e inset, read-out: apparent dissociation constant, activated channel, derived from relative sustained current in 30 μM Cd2+

In the case of `[Cd+2]` [Cd^2+], the “shift of the activation curve” value ([1]; 3 μM Cd2+, n = 4) is reported as “moderate leftward shift”, the “shift of the desensitization curve” value ([1]; 3 μM Cd2+, n = 4) is reported as “moderate leftward shift” and the “effect on NMDAR currents relative to 2 mM Ca2+” value ([1]; 30 μM Cd2+ vs 2 mM Ca2+ in the extracellular milieu) is reported as “stronger effects than 2 mM Ca^2+”. The Kd ([1]; activated (steady-state mixture of open and desensitized) channel, Cd2+ during the NMDA pulse, Fig. 3b, n = 7, read-out: apparent dissociation constant (Kd), Hill fit of relative sustained current) was ~1.6 µM, the Kd ([1]; activated channel, sustained current, mean ± SEM, read-out: Kd from fits of each individual data set, Fig. 3b) was 1.4 ± 0.16 µM and the “Hill coefficient n, relative sustained current” value ([1]; activated channel, Fig. 3b) was 1. For the same compound, the “slope of unbinding rates against Cd2+ concentration” value ([1]; activated channel, essentially zero, n = 4) was ~ 0.01 M^−1s^−1, the “macroscopic on rate (slope of binding rates against Cd2+ concentration)” value ([1]; activated channel, fast application of Cd2+, n = 4) was 430000 M⁻¹ s⁻¹ and the “intercept of binding rates against Cd2+ concentration” value ([1]; activated channel, linear regression, n = 4) was 9.4 s⁻¹. The “macroscopic off rate (intercept of unbinding rates)” value ([1]; activated channel, wash-off of Cd2+, n = 4) was 6.8 s⁻¹, the Kd ([1]; closed (resting) channel, Cd2+ applied in the interpulse phase, Fig. 2b, n = 7, read-out: apparent dissociation constant (Kd), Hill fit of relative peak current) was 6 µM and ~6 µM and the Kd ([1]; closed channel, activation speed, mean ± SEM, read-out: Kd from fits of each individual data set, Fig. 2d) was 3.4 ± 0.66 µM. For the same compound, the Kd ([1]; closed channel, peak current, mean ± SEM, read-out: Kd from fits of each individual data set, Fig. 2b) was 7.6 ± 1.2 µM, the Kd ([1]; closed channel, Cd2+ in the interpulse phase, Fig. 2d, n = 4, read-out: apparent dissociation constant (Kd), Hill fit of relative initial activation speed) was 4.5 µM and ~4.5 µM and the “Hill coefficient n, relative peak current” value ([1]; closed channel, Fig. 2b) was 1. For the same compound, the “Hill coefficient n, relative activation speed” value ([1]; closed channel, Fig. 2d) was 1, the Kd ([1]; equal to KCd2+,o × m/r from model fits in 3 μM Cd2+, not a precise estimate, read-out: KCd2+,d (dissociation constant for Cd2+ binding to the desensitized NMDA channel)) was 1.25 µM and the Kd ([1]; model fit (equations 2 and 4) to activation and desensitization data in 3 μM Cd2+, not a precise estimate, read-out: KCd2+,o (dissociation constant for Cd2+ binding to the open NMDA channel)) was 2.5 µM. For the same compound, the “r value, r = m × (KCd2+,o/KCd2+,d)” value ([1]; model fit to activation and desensitization data in 3 μM Cd2+, m set at 4) was 8, the Kd ([1]; ratio between the macroscopic off rate and on rate, Fig. 4a inset, read-out: rough estimate of the dissociation constant of Cd2+ to the open state) was ~16 µM and the Kd ([1]; wild-type, Hill coefficient of 1 assumed, Fig. 5e inset, read-out: apparent dissociation constant, closed channel, derived from relative peak current in 30 μM Cd2+) was 19.6 µM. It also gave a Kd ([1]; wild-type, Hill coefficient of 1 assumed, Fig. 6e inset, read-out: apparent dissociation constant, activated channel, derived from relative sustained current in 30 μM Cd2+) of 3.2 µM, a Kd [2, 8] of 40.7 µM and a Kd [2, 9] of 7.7 µM. The Kd [3, 8] was 37.3 µM, the Kd [3, 9] was 5.6 µM and the “coupling coefficient ((KdWT × KdE661AE662A)/(KdE661A × KdE662A)), double mutant cycle analysis” value ([4]; Cd2+ binding to the activated NMDA channel) was 1.03. The “coupling coefficient ((KdWT × KdE661AE662A)/(KdE661A × KdE662A)), double mutant cycle analysis” value ([4]; Cd2+ binding to the closed NMDA channel) was 0.90, the Kd [4, 8] was 70.2 µM and the Kd [4, 9] was 13.9 µM. The “effect on peak current, closed channel, compared with WT” value [5] was “less pronounced”, the “effect on peak current, closed channel, compared with WT” value ([6]; 30 μM Cd2+ between NMDA pulses, P = 0.0093) was “less pronounced” and the “effect on sustained current, activated channel, compared with WT” value ([6]; 30 μM Cd2+ during NMDA pulse, P = 0.00031) was “less pronounced”. The “relative hook current after wash-off of agonists and blocking cation, compared with WT channel” value ([7]; P = 0.00012) was “significantly larger hook current” and the “inhibitory effect on sustained current (relative current) compared with WT channel” value ([7]; n = 8 vs WT n = 6, P = 0.00037) was “significantly smaller effect”.

Source: PMC5111045, “Modulation of NMDA channel gating by Ca^2+ and Cd^2+ binding to the external pore mouth” (Scientific Reports, 2016)
